The source made the active and inactive calls. The calls are words filed in the database; no cut-off is given here.
What was measured:
4T1 [1] = experiment: Induction of DNA damage in mouse 4T1 cells assessed as decrease in PARP1 level at 2 uM incubated for 24 hrs by Western blot analysis; format: functional, cell-based
4T1 [2] = experiment: Induction of DNA damage in mouse 4T1 cells assessed as increase in gamma-H2AX level at 2 uM incubated for 24 hrs by Western blot analysis; format: functional, cell-based
4T1 [3] = experiment: Induction of DNA damage in mouse 4T1 cells assessed as decrease in PARP1 level at 1 uM by immunofluorescence based analysis; format: functional, cell-based
4T1 [4] = experiment: Induction of DNA damage in mouse 4T1 cells assessed as increase in gamma-H2AX level at 1 uM by immunofluorescence based analysis; format: functional, cell-based
4T1 [5] = experiment: Antitumor activity against mouse 4T1 cells implanted in mouse at 20 mg/kg/day relative to control; format: functional; settings: read-out: TGI
4T1 [6] = experiment: Induction of DNA damage in mouse 4T1 cells implanted in mouse assessed as decrease in PARP level at 20 mg/kg/day by Western blot analysis; format: functional, organism-based
4T1 [7] = experiment: Induction of DNA damage in mouse 4T1 cells implanted in mouse assessed as increase in gamma-H2AX level at 20 mg/kg/day by Western blot analysis; format: functional, organism-based
4T1 [8] = experiment: Induction of DNA damage in mouse 4T1 cells implanted in mouse assessed as decrease in PARP level at 20 mg/kg/day by immunofluorescence based analysis; format: functional, organism-based
4T1 [9] = experiment: Induction of DNA damage in mouse 4T1 cells implanted in mouse assessed as increase in gamma-H2AX level at 20 mg/kg/day by immunofluorescence based analysis; format: functional, organism-based
SK-OV-3 [10] = experiment: cells; format: functional; settings: Homo sapiens, time 72 hrs
4T1 [11] = experiment: cells; format: functional; settings: Mus musculus, time 72 hrs
HCT-116 [12] = experiment: cells; format: functional; settings: Homo sapiens, time 72 hrs
B16-F10 [13] = experiment: cells; format: functional; settings: Mus musculus, time 72 hrs
K562 [14] = experiment: cells; format: functional; settings: Homo sapiens, time 72 hrs
4T1 [15] = experiment: Antiproliferative activity against mouse 4T1 cells incubated for 72 hrs by MTT assay; format: functional, cell-based; settings: 4T1, 72 h
SK-OV-3 [16] = experiment: Antiproliferative activity against human SK-OV-3 cells incubated for 72 hrs by MTT assay; format: functional, cell-based; settings: SK-OV-3, 72 h
HCT-116 [17] = experiment: Antiproliferative activity against human HCT-116 cells incubated for 72 hrs by MTT assay; format: functional, cell-based; settings: HCT-116, 72 h
B16-F10 [18] = experiment: Antiproliferative activity against mouse B16-F10 cells incubated for 72 hrs by MTT assay; format: functional, cell-based; settings: B16-F10, 72 h
K562 [19] = experiment: Antiproliferative activity against human K562 cells incubated for 72 hrs by CCK8 assay; format: functional, cell-based; settings: K562, 72 h
[20] = Antiproliferative activity against human HK-2 cells incubated for 72 hrs by MTT assay
Histone deacetylase 1 = Histone deacetylase 1 (Homo sapiens, UniProt Q13547); experiment: Inhibition of HDAC1 (unknown origin)
Chain of Histone deacetylase 1 (Q13547 whole entry): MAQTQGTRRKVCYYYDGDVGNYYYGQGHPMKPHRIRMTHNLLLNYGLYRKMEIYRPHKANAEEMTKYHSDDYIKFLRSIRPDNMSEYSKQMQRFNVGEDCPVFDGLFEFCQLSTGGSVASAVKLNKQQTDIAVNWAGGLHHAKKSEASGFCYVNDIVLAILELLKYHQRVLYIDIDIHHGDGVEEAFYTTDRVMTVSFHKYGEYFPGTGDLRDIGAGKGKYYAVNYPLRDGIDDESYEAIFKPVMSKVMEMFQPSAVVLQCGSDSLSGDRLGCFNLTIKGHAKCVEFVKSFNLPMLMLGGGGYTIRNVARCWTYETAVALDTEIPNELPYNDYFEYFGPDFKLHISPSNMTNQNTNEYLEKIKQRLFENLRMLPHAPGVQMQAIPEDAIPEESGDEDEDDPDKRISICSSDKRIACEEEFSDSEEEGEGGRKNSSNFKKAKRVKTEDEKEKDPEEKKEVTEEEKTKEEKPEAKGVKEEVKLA

Histone deacetylase 3 = Histone deacetylase 3 (Homo sapiens, UniProt O15379); experiment: Inhibition of HDAC3 (unknown origin)
Chain of Histone deacetylase 3 (O15379 whole entry): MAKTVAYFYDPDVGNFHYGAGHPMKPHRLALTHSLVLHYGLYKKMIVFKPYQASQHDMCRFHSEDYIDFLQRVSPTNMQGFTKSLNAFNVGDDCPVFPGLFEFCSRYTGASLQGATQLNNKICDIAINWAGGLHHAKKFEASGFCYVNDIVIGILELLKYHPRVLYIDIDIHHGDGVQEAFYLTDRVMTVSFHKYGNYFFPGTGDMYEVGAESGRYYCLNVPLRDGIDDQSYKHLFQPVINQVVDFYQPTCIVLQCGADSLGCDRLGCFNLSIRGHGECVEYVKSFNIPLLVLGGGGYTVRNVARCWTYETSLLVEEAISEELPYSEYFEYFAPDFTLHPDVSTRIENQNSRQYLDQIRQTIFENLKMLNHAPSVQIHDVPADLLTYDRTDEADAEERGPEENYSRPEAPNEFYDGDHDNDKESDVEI

[21] = target: T1, Protein deacetylase HDAC6 (Homo sapiens, UniProt Q9UBN7); experiment: Inhibition of HDAC6 (unknown origin)
T1 sequence (Q9UBN7 whole entry): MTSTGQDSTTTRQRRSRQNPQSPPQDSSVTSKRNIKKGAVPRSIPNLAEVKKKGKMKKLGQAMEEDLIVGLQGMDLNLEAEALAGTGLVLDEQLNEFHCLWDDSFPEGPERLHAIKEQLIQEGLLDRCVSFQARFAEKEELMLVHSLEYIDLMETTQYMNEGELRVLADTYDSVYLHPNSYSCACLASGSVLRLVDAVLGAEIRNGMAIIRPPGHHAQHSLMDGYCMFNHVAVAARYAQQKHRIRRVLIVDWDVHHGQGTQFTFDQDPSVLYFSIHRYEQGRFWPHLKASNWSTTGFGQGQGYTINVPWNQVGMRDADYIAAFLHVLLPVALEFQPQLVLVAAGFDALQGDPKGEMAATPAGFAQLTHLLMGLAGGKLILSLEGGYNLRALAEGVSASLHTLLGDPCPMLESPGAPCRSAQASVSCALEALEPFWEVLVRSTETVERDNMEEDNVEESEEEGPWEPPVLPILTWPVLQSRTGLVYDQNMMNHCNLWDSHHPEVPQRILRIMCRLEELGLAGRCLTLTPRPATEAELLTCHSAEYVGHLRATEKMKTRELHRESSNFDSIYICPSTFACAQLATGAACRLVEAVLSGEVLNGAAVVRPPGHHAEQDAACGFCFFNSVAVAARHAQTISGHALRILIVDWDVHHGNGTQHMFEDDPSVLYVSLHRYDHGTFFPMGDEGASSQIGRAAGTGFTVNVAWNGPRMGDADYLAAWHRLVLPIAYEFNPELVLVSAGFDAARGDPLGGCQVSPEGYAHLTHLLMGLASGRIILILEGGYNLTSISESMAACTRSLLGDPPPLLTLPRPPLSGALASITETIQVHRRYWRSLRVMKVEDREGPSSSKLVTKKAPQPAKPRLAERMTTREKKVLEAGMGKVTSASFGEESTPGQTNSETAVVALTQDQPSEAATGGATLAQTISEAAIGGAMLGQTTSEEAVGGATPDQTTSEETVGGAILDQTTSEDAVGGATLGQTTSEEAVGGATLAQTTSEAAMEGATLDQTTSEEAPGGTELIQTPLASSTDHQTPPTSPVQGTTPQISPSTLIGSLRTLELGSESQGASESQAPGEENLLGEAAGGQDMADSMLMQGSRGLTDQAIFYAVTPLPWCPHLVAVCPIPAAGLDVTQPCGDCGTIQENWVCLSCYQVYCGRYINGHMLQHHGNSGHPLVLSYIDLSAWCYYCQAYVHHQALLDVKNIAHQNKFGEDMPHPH

Histone deacetylase 8 = target: T2, Histone deacetylase 8 (Homo sapiens, UniProt Q9BY41); experiment: Inhibition of HDAC8 (unknown origin)
T2 sequence (Q9BY41 whole entry): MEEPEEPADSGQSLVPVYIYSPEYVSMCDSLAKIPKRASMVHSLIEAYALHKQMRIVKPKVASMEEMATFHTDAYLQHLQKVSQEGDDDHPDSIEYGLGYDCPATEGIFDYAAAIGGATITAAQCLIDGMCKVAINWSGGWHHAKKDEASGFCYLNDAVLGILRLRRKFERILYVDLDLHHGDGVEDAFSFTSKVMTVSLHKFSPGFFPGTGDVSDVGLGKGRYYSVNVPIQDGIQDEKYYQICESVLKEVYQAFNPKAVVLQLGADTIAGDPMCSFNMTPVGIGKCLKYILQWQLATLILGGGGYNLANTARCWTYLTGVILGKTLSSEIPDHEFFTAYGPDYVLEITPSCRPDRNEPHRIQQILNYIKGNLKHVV

B16-F10 [22] = experiment: Antitumor activity against mouse B16-F10 cells implanted in male C57BL/6J mouse at 20 mg/kg, IG treated for 14 days consecutively relative to control; format: functional; settings: B16-F10, po, 336 h, time 14 day, read-out: TGI
B16-F10 [23] = experiment: Induction of antitumor immunity in mouse B16-F10 cells implanted in male C57BL/6J mouse assessed as CD3+CD4+ T cell infiltration at 20 mg/kg, IG treated for 14 days consecutively by flow cytometry (reference value: 7.4 %); format: functional; settings: time 14 day
B16-F10 [24] = experiment: Induction of antitumor immunity in mouse B16-F10 cells implanted in male C57BL/6J mouse assessed as CD3+CD8+ T cell infiltration at 20 mg/kg, IG treated for 14 days consecutively by flow cytometry (reference value: 10 %); format: functional; settings: time 14 day

## O=C(c1cc(Cc2n[nH]c(=O)c3ccccc23)ccc1F)N1CCN(C(=O)C2CC2)CC1 [OLAPARIB]
4T1 [1]
  Activity: Active
4T1 [2]
  Activity: Active
4T1 [3]
  Activity: Active
4T1 [4]
  Activity: Active
4T1 [5]
  inhibition in vivo at 20 mg/kg/day: 49%
4T1 [6]
  Activity: Active
4T1 [7]
  Activity: Active
4T1 [8]
  Activity: Active
4T1 [9]
  Activity: Active

## CCCNNC(=O)CCCCCCNC(=O)c1cnc(-c2ccc(Br)cc2)s1
SK-OV-3 [10]
  inhibition at 10 µM: 60.8%
4T1 [11]
  inhibition at 10 µM: 53%
HCT-116 [12]
  inhibition at 10 µM: 59.3%
B16-F10 [13]
  inhibition at 10 µM: 50.7%
K562 [14]
  inhibition at 10 µM: < 50%
4T1 [15]
  IC50: 14.4 µM
SK-OV-3 [16]
  IC50: 12.7 µM
HCT-116 [17]
  IC50: 0.79 µM
B16-F10 [18]
  IC50: 5.31 µM
K562 [19]
  IC50: 8.12 µM
[20]
  IC50 at 72 h: 13.9 µM
Histone deacetylase 1
  IC50: > 5 µM
Histone deacetylase 3
  IC50: 3.43 µM
[21]
  IC50: > 10 µM
Histone deacetylase 8
  IC50: > 10 µM

## Cc1c(COc2cc(OCc3cccc(C#N)c3)c(CNC(C)(C)C(=O)O)cc2Cl)cccc1-c1ccccc1
B16-F10 [22]
  inhibition in vivo at 20 mg/kg: 33%
B16-F10 [23]
  Activity: 23%
B16-F10 [24]
  Activity: 31%

Reference: ChEMBL document CHEMBL6182898, “Design, synthesis and bioevaluation of novel hydrazide derivatives as enhancers of immunotherapy and DNA-damage response in antitumor therapy” (Eur J Med Chem, 2025)
